Test results: ChEMBL document CHEMBL3885861, “Open TG-GATES”

Species on record: Rattus norvegicus
Experiment: Open TG-GATES - Regimen: Single
Format: toxicity, organism-based, Sprague-Dawley
Parameters: regimen Single, gender Male, age 6 weeks
Details: in vivo, po, 100 mg/kg, route gavage, dose level High; for APTT / Bas / Eos / Fbg / Hb / Ht / Lym / MCH / MCHC / MCV / Mono / Neu / PT / Plat / RBC / Ret / WBC: tissue Blood; for KIDNEY_L / KIDNEY_R / KIDNEY_TOTAL: tissue Kidney; for LIVER: tissue Liver; for A/G / ALP / ALT / AST / BUN / CRE / Ca / Cl / DBIL / GLC / IP / K / LDH / Na / PL / RALB / TBIL / TC / TG / TP / gamma-GTP: tissue Plasma

Molecule `CCN(CC)N=O` [N-NITROSODIETHYLAMINE] has a TERMINAL_BW (3 h) of 221.2 g, an APTT (3 h) of 19.4 s and a Bas (3 h) of 0%. For the same molecule, the Eos (3 h) was 1%, the Fbg (3 h) was 208.2 mg/dL and the Hb (3 h) was 13.2 g/dL. The Ht (3 h) was 38.5%, the Lym (3 h) was 77.2% and the MCH (3 h) was 21.5 pg. For the same molecule, the MCHC (3 h) was 34.2%, the MCV (3 h) was 62.7 fL and the Mono (3 h) was 1.4%. It also gave a Neu (3 h) of 19.2%, a PT (3 h) of 12 s and a Plat (3 h) of 113.8 x10_4/uL. The RBC (3 h) was 613.8 x10_4/ul, the Ret (3 h) was 7.2% and the WBC (3 h) was 60.2 x10_2/uL. It also gave a KIDNEY_L (3 h) of 1 g, a KIDNEY_R (3 h) of 1 g and a KIDNEY_TOTAL (3 h) of 2 g. For the same molecule, the LIVER (3 h) was 9 g, the A/G (3 h) was 1.7 and the ALP (3 h) was 781 IU/L. The ALT (3 h) was 39.6 IU/L, the AST (3 h) was 73.6 IU/L and the BUN (3 h) was 9.8 mg/dL. It also gave a CRE (3 h) of 0.4 mg/dL, a Ca (3 h) of 10.2 mg/dL and a Cl (3 h) of 102.2 meq/L. The DBIL (3 h) was 0.056 mg/dL, the GLC (3 h) was 191 mg/dL and the IP (3 h) was 8.5 mg/dL. The K (3 h) was 3.5 meq/L, the LDH (3 h) was 162 IU/L and the Na (3 h) was 140.8 meq/L. It also gave a PL (3 h) of 124.8 mg/dL, an RALB (3 h) of 3.4 g/dL and a TBIL (3 h) of 0.1 mg/dL. For the same molecule, the TC (3 h) was 85 mg/dL, the TG (3 h) was 24.2 mg/dL and the TP (3 h) was 5.5 g/dL. It also gave a gamma-GTP (3 h) of 1.2 IU/L, a TERMINAL_BW (6 h) of 218 g and an APTT (6 h) of 18.8 s. For the same molecule, the Bas (6 h) was 0.4%, the Eos (6 h) was 0.8% and the Fbg (6 h) was 214.6 mg/dL. The Hb (6 h) was 13.2 g/dL, the Ht (6 h) was 38.2% and the Lym (6 h) was 80.2%. The MCH (6 h) was 21.2 pg, the MCHC (6 h) was 34.6% and the MCV (6 h) was 61.4 fL. For the same molecule, the Mono (6 h) was 2%, the Neu (6 h) was 16% and the PT (6 h) was 12.7 s. The Plat (6 h) was 142.5 x10_4/uL, the RBC (6 h) was 623 x10_4/ul and the Ret (6 h) was 6.6%. It also gave a WBC (6 h) of 83.6 x10_2/uL, a KIDNEY_L (6 h) of 1 g and a KIDNEY_R (6 h) of 1 g. It also gave a KIDNEY_TOTAL (6 h) of 2 g, an LIVER (6 h) of 9.8 g and an A/G (6 h) of 1.6. It also gave an ALP (6 h) of 784.2 IU/L, an ALT (6 h) of 38.2 IU/L and an AST (6 h) of 73.4 IU/L. For the same molecule, the BUN (6 h) was 12 mg/dL, the CRE (6 h) was 0.4 mg/dL and the Ca (6 h) was 10.2 mg/dL. It also gave a Cl (6 h) of 103.4 meq/L, a DBIL (6 h) of 0.068 mg/dL and a GLC (6 h) of 192.8 mg/dL. For the same molecule, the IP (6 h) was 8.3 mg/dL, the K (6 h) was 3.5 meq/L and the LDH (6 h) was 207.8 IU/L. The Na (6 h) was 140.4 meq/L, the PL (6 h) was 103.6 mg/dL and the RALB (6 h) was 3.4 g/dL. It also gave a TBIL (6 h) of 0.1 mg/dL, a TC (6 h) of 68.8 mg/dL and a TG (6 h) of 24 mg/dL. It also gave a TP (6 h) of 5.5 g/dL, a gamma-GTP (6 h) of 1.4 IU/L and a TERMINAL_BW (9 h) of 225.6 g. It also gave an APTT (9 h) of 19.6 s, a Bas (9 h) of 0.6% and an Eos (9 h) of 1%. For the same molecule, the Fbg (9 h) was 226.6 mg/dL, the Hb (9 h) was 13.7 g/dL and the Ht (9 h) was 39.4%. It also gave a Lym (9 h) of 71.6%, an MCH (9 h) of 21.4 pg and an MCHC (9 h) of 34.9%. It also gave an MCV (9 h) of 61.4 fL, a Mono (9 h) of 5% and a Neu (9 h) of 20.4%. For the same molecule, the PT (9 h) was 13.8 s, the Plat (9 h) was 122.7 x10_4/uL and the RBC (9 h) was 642 x10_4/ul. The Ret (9 h) was 6.9%, the WBC (9 h) was 78.5 x10_2/uL and the KIDNEY_L (9 h) was 1 g. It also gave a KIDNEY_R (9 h) of 1 g, a KIDNEY_TOTAL (9 h) of 2 g and an LIVER (9 h) of 9.7 g. For the same molecule, the A/G (9 h) was 1.6, the ALP (9 h) was 795 IU/L and the ALT (9 h) was 35.6 IU/L. The AST (9 h) was 87.8 IU/L, the BUN (9 h) was 14.2 mg/dL and the CRE (9 h) was 0.4 mg/dL. For the same molecule, the Ca (9 h) was 10.3 mg/dL, the Cl (9 h) was 103.2 meq/L and the DBIL (9 h) was 0.064 mg/dL. For the same molecule, the GLC (9 h) was 194.4 mg/dL, the IP (9 h) was 8.2 mg/dL and the K (9 h) was 3.7 meq/L. It also gave an LDH (9 h) of 267.2 IU/L, a Na (9 h) of 141.6 meq/L and a PL (9 h) of 110.4 mg/dL. For the same molecule, the RALB (9 h) was 3.4 g/dL, the TBIL (9 h) was 0.1 mg/dL and the TC (9 h) was 73.4 mg/dL. For the same molecule, the TG (9 h) was 28.2 mg/dL, the TP (9 h) was 5.5 g/dL and the gamma-GTP (9 h) was 1.6 IU/L. It also gave a TERMINAL_BW (24 h) of 216.1 g, an APTT (24 h) of 19 s and a Bas (24 h) of 0.8%. The Eos (24 h) was 1.2%, the Fbg (24 h) was 225.6 mg/dL and the Hb (24 h) was 15.1 g/dL. The Ht (24 h) was 44.4%, the Lym (24 h) was 72.4% and the MCH (24 h) was 21 pg. It also gave an MCHC (24 h) of 34%, an MCV (24 h) of 61.7 fL and a Mono (24 h) of 6%. For the same molecule, the Neu (24 h) was 17.8%, the PT (24 h) was 17 s and the Plat (24 h) was 130.3 x10_4/uL. It also gave an RBC (24 h) of 720.2 x10_4/ul, a Ret (24 h) of 6.5% and a WBC (24 h) of 83.1 x10_2/uL. The KIDNEY_L (24 h) was 1 g, the KIDNEY_R (24 h) was 1 g and the KIDNEY_TOTAL (24 h) was 2 g. For the same molecule, the LIVER (24 h) was 8.2 g, the A/G (24 h) was 1.7 and the ALP (24 h) was 955.6 IU/L. It also gave an ALT (24 h) of 56.2 IU/L, an AST (24 h) of 160 IU/L and a BUN (24 h) of 13.4 mg/dL. The CRE (24 h) was 0.4 mg/dL, the Ca (24 h) was 10.4 mg/dL and the Cl (24 h) was 104.2 meq/L. For the same molecule, the DBIL (24 h) was 0.1 mg/dL, the GLC (24 h) was 179.6 mg/dL and the IP (24 h) was 8.4 mg/dL. The K (24 h) was 4.1 meq/L, the LDH (24 h) was 348.8 IU/L and the Na (24 h) was 140.6 meq/L. For the same molecule, the PL (24 h) was 112.2 mg/dL, the RALB (24 h) was 3.3 g/dL and the TBIL (24 h) was 0.2 mg/dL. For the same molecule, the TC (24 h) was 65.2 mg/dL, the TG (24 h) was 25.6 mg/dL and the TP (24 h) was 5.3 g/dL. For the same molecule, the gamma-GTP (24 h) was 1.8 IU/L.
